Experiments:
Assay in all cases: relative viability (nuclei count vs DMSO), 5 days (fraction); higher = more cells survive
HCC-366 = system: HCC-366
In short: (§1)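 Lung cancer cell lines were pin-tool dosed in 1536-well plates on the day after seeding, with either a lone drug or a fixed anchor-drug dose plus five library-drug doses (not always all listed) in √10 steps. Nuclei were counted on 4× images after 5 days. Relative viability is the ratio of treated-well to vehicle-well nuclei counts, with each value a median of duplicate plates.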

NCI-H460 = system: NCI-H460
In short: as §1

NCI-H1975 = system: NCI-H1975
In short: as §1

NCI-H727 = system: NCI-H727
In short: as §1

NCI-H1355 = system: NCI-H1355
In short: as §1

HCC-827 = system: HCC-827
In short: as §1

A-427 = system: A-427
In short: as §1

NCI-H1437 = system: NCI-H1437
In short: as §1

EMC-BAC-2 = system: EMC-BAC-2
In short: as §1

HOP-62 = system: HOP-62
In short: as §1

NCI-H1915 = system: NCI-H1915
In short: as §1

NCI-H2009 = system: NCI-H2009
In short: as §1

SW 1573 = system: SW 1573
In short: as §1

COR-L 105 = system: COR-L 105
In short: as §1

NCI-H1792 = system: NCI-H1792
In short: as §1

NCI-H1395 = system: NCI-H1395
In short: as §1

NCI-H23 = system: NCI-H23
In short: as §1

HARA = system: HARA
In short: as §1

NCI-H2228 = system: NCI-H2228
In short: as §1

SK-LU-1 = system: SK-LU-1
In short: as §1

CAL-12T = system: CAL-12T
In short: as §1

NCI-H1755 = system: NCI-H1755
In short: as §1

Which results are given for `C[C@@H]1CN(CC(=O)Nc2ccc3c(c2)Cc2cccc(-c4cc(=O)cc(N5CCOCC5)o4)c2S3)C[C@H](C)O1` + CS(=O)(=O)CCNCc1ccc(-c2ccc3ncnc(Nc4ccc(OCc5cccc(F)c5)c(Cl)c4)c3c2)o1 [Lapatinib] (partner 2 µM)?
relative viability (HCC-366; first compound 0.04 µM): 0.383; relative viability (HCC-366; first compound 0.1265 µM): 0.974; relative viability (HCC-366; first compound 0.4 µM): 1.17; relative viability (HCC-366; first compound 4 µM): 0.824; relative viability (NCI-H460; first compound 0.04 µM): 0.941; relative viability (NCI-H460; first compound 0.1265 µM): 1.02; relative viability (NCI-H460; first compound 0.4 µM): 1.04; relative viability (NCI-H460; first compound 4 µM): 0.799; relative viability (NCI-H1975; first compound 0.04 µM): 0.871; relative viability (NCI-H1975; first compound 0.1265 µM): 0.803; relative viability (NCI-H1975; first compound 0.4 µM): 0.912; relative viability (NCI-H1975; first compound 4 µM): 0.754; relative viability (NCI-H727; first compound 0.04 µM): 0.9; relative viability (NCI-H727; first compound 0.1265 µM): 0.801; relative viability (NCI-H727; first compound 0.4 µM): 0.78; relative viability (NCI-H727; first compound 4 µM): 0.752; relative viability (NCI-H1355; first compound 0.04 µM): 0.713; relative viability (NCI-H1355; first compound 0.1265 µM): 0.992; relative viability (NCI-H1355; first compound 0.4 µM): 0.816; relative viability (NCI-H1355; first compound 4 µM): 0.97; relative viability (HCC-827; first compound 0.04 µM): 0.172; relative viability (HCC-827; first compound 0.1265 µM): 0.191; relative viability (HCC-827; first compound 0.4 µM): 0.212; relative viability (HCC-827; first compound 4 µM): 0.19; relative viability (A-427; first compound 0.04 µM): 0.898; relative viability (A-427; first compound 0.1265 µM): 1.05; relative viability (A-427; first compound 0.4 µM): 1.18; relative viability (A-427; first compound 4 µM): 1.01; relative viability (NCI-H1437; first compound 0.04 µM): 0.758; relative viability (NCI-H1437; first compound 0.1265 µM): 0.703; relative viability (NCI-H1437; first compound 0.4 µM): 0.834; relative viability (NCI-H1437; first compound 4 µM): 0.702; relative viability (EMC-BAC-2; first compound 0.04 µM): 0.903; relative viability (EMC-BAC-2; first compound 0.1265 µM): 0.934; relative viability (EMC-BAC-2; first compound 0.4 µM): 0.775; relative viability (EMC-BAC-2; first compound 4 µM): 0.827; relative viability (HOP-62; first compound 0.04 µM): 0.549; relative viability (HOP-62; first compound 0.1265 µM): 1.01; relative viability (HOP-62; first compound 0.4 µM): 1.19; relative viability (HOP-62; first compound 4 µM): 0.953; relative viability (NCI-H1915; first compound 0.04 µM): 0.872; relative viability (NCI-H1915; first compound 0.1265 µM): 0.956; relative viability (NCI-H1915; first compound 0.4 µM): 1.06; relative viability (NCI-H1915; first compound 4 µM): 0.785; relative viability (NCI-H2009; first compound 0.04 µM): 0.486; relative viability (NCI-H2009; first compound 0.1265 µM): 0.846; relative viability (NCI-H2009; first compound 0.4 µM): 0.964; relative viability (NCI-H2009; first compound 4 µM): 0.687; relative viability (SW 1573; first compound 0.04 µM): 1.1; relative viability (SW 1573; first compound 0.1265 µM): 1.14; relative viability (SW 1573; first compound 0.4 µM): 1.18; relative viability (SW 1573; first compound 4 µM): 1.08; relative viability (COR-L 105; first compound 0.04 µM): 0.28; relative viability (COR-L 105; first compound 0.1265 µM): 0.302; relative viability (COR-L 105; first compound 0.4 µM): 0.381; relative viability (COR-L 105; first compound 4 µM): 0.359; relative viability (NCI-H1792; first compound 0.04 µM): 0.824; relative viability (NCI-H1792; first compound 0.1265 µM): 0.832; relative viability (NCI-H1792; first compound 0.4 µM): 0.856; relative viability (NCI-H1792; first compound 4 µM): 0.849; relative viability (NCI-H1395; first compound 0.04 µM): 0.928; relative viability (NCI-H1395; first compound 0.1265 µM): 1; relative viability (NCI-H1395; first compound 0.4 µM): 1.06; relative viability (NCI-H1395; first compound 4 µM): 0.93; relative viability (NCI-H23; first compound 0.04 µM): 0.886; relative viability (NCI-H23; first compound 0.1265 µM): 1.16; relative viability (NCI-H23; first compound 0.4 µM): 1.01; relative viability (NCI-H23; first compound 4 µM): 1.04; relative viability (HARA; first compound 0.04 µM): 0.732; relative viability (HARA; first compound 0.1265 µM): 0.613; relative viability (HARA; first compound 0.4 µM): 0.796; relative viability (HARA; first compound 4 µM): 0.738; relative viability (NCI-H2228; first compound 0.04 µM): 1.23; relative viability (NCI-H2228; first compound 0.1265 µM): 1.05; relative viability (NCI-H2228; first compound 0.4 µM): 0.974; relative viability (NCI-H2228; first compound 4 µM): 0.618; relative viability (SK-LU-1; first compound 0.04 µM): 0.869; relative viability (SK-LU-1; first compound 0.1265 µM): 0.959; relative viability (SK-LU-1; first compound 0.4 µM): 0.877; relative viability (SK-LU-1; first compound 4 µM): 0.707; relative viability (CAL-12T; first compound 0.04 µM): 0.28; relative viability (CAL-12T; first compound 0.1265 µM): 0.69; relative viability (CAL-12T; first compound 0.4 µM): 0.667; relative viability (CAL-12T; first compound 4 µM): 0.636; relative viability (NCI-H1755; first compound 0.04 µM): 1.1; relative viability (NCI-H1755; first compound 0.1265 µM): 0.995; relative viability (NCI-H1755; first compound 0.4 µM): 1; relative viability (NCI-H1755; first compound 4 µM): 0.932

Which results are given for `CC(C)Oc1cc(Nc2nc(N[C@@H](C)c3ccc(F)cn3)ncc2Cl)n[nH]1` [AZ23] + CC1(C)CCC(c2ccc(Cl)cc2)=C(CN2CCN(c3ccc(C(=O)NS(=O)(=O)c4ccc(N[C@H](CCN5CCOCC5)CSc5ccccc5)c(S(=O)(=O)C(F)(F)F)c4)cc3)CC2)C1 [Navitoclax] (partner 0.5 µM)?
relative viability (HCC-366; first compound 0.01 µM): 1.3; relative viability (HCC-366; first compound 0.03162 µM): 0.998; relative viability (HCC-366; first compound 0.3162 µM): 0.883; relative viability (NCI-H460; first compound 0.01 µM): 1.12; relative viability (NCI-H460; first compound 0.03162 µM): 1.41; relative viability (NCI-H460; first compound 0.3162 µM): 1.44; relative viability (NCI-H1975; first compound 0.01 µM): 1.24; relative viability (NCI-H1975; first compound 0.03162 µM): 1.41; relative viability (NCI-H1975; first compound 0.3162 µM): 1.2; relative viability (NCI-H727; first compound 0.01 µM): 0.382; relative viability (NCI-H727; first compound 0.03162 µM): 0.506; relative viability (NCI-H727; first compound 0.3162 µM): 0.385; relative viability (NCI-H1355; first compound 0.01 µM): 0.999; relative viability (NCI-H1355; first compound 0.03162 µM): 0.896; relative viability (NCI-H1355; first compound 0.3162 µM): 0.833; relative viability (HCC-827; first compound 0.01 µM): 1; relative viability (HCC-827; first compound 0.03162 µM): 1.04; relative viability (HCC-827; first compound 0.3162 µM): 0.991; relative viability (A-427; first compound 0.01 µM): 0.941; relative viability (A-427; first compound 0.03162 µM): 1.06; relative viability (A-427; first compound 0.3162 µM): 0.864; relative viability (NCI-H1437; first compound 0.01 µM): 1.33; relative viability (NCI-H1437; first compound 0.03162 µM): 1.29; relative viability (NCI-H1437; first compound 0.3162 µM): 1.13; relative viability (EMC-BAC-2; first compound 0.01 µM): 1.59; relative viability (EMC-BAC-2; first compound 0.03162 µM): 1.25; relative viability (EMC-BAC-2; first compound 0.3162 µM): 1.19; relative viability (HOP-62; first compound 0.01 µM): 0.94; relative viability (HOP-62; first compound 0.03162 µM): 1.21; relative viability (HOP-62; first compound 0.3162 µM): 1.18; relative viability (NCI-H1915; first compound 0.01 µM): 0.799; relative viability (NCI-H1915; first compound 0.03162 µM): 0.845; relative viability (NCI-H1915; first compound 0.3162 µM): 0.797; relative viability (NCI-H2009; first compound 0.01 µM): 1.16; relative viability (NCI-H2009; first compound 0.03162 µM): 1.18; relative viability (NCI-H2009; first compound 0.3162 µM): 1.19; relative viability (SW 1573; first compound 0.01 µM): 0.991; relative viability (SW 1573; first compound 0.03162 µM): 0.952; relative viability (SW 1573; first compound 0.3162 µM): 0.833; relative viability (COR-L 105; first compound 0.01 µM): 0.543; relative viability (COR-L 105; first compound 0.03162 µM): 0.869; relative viability (COR-L 105; first compound 0.3162 µM): 0.736; relative viability (NCI-H1792; first compound 0.01 µM): 0.763; relative viability (NCI-H1792; first compound 0.03162 µM): 0.858; relative viability (NCI-H1792; first compound 0.3162 µM): 0.693; relative viability (NCI-H1395; first compound 0.03162 µM): 1.12; relative viability (NCI-H1395; first compound 0.3162 µM): 1.21; relative viability (NCI-H23; first compound 0.03162 µM): 0.981; relative viability (NCI-H23; first compound 0.3162 µM): 0.69; relative viability (HARA; first compound 0.01 µM): 0.973; relative viability (HARA; first compound 0.03162 µM): 1.16; relative viability (HARA; first compound 0.3162 µM): 1.16; relative viability (NCI-H2228; first compound 0.01 µM): 0.848; relative viability (NCI-H2228; first compound 0.03162 µM): 0.963; relative viability (NCI-H2228; first compound 0.3162 µM): 0.709; relative viability (SK-LU-1; first compound 0.01 µM): 0.457; relative viability (SK-LU-1; first compound 0.03162 µM): 1.38; relative viability (SK-LU-1; first compound 0.3162 µM): 0.858; relative viability (CAL-12T; first compound 0.01 µM): 0.61; relative viability (CAL-12T; first compound 0.03162 µM): 1.28; relative viability (CAL-12T; first compound 0.3162 µM): 1.17; relative viability (NCI-H1755; first compound 0.01 µM): 1.17; relative viability (NCI-H1755; first compound 0.03162 µM): 1.11; relative viability (NCI-H1755; first compound 0.3162 µM): 1.03
